Key:
[1] = biological target: T1, JAK3 (Homo sapiens, UniProt P52333); assay: Kinase competition binding assay, JAK3; conditions: Table 1 kinase panel
T1 construct: made in house
T1 sequence (P52333 1-1124): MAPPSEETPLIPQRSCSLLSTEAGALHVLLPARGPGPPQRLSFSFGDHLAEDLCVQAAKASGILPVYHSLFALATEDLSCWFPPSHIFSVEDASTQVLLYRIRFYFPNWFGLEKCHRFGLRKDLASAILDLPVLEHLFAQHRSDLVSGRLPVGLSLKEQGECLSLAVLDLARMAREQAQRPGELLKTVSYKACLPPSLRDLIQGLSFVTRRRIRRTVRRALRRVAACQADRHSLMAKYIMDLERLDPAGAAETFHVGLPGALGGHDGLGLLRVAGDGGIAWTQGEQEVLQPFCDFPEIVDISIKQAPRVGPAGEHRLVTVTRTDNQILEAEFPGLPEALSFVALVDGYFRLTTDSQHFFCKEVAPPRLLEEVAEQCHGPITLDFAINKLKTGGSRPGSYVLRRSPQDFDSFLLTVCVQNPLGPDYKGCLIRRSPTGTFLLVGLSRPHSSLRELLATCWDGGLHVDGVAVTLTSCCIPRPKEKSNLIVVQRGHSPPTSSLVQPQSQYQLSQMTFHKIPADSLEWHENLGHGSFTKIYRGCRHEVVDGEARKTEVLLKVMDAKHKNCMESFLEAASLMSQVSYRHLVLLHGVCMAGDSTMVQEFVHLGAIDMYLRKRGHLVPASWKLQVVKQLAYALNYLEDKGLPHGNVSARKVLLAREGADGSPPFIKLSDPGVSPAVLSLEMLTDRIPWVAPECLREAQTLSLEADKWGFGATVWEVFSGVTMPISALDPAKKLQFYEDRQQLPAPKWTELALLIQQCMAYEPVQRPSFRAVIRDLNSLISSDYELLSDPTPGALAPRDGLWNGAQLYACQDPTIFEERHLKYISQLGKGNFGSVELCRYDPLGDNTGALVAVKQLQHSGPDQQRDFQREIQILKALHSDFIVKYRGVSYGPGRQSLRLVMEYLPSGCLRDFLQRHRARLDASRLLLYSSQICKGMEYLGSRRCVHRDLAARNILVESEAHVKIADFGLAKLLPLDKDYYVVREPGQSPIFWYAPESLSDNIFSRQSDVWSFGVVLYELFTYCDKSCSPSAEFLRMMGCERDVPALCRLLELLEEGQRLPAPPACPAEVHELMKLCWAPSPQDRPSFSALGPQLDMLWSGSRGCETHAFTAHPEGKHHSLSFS
Protocol: (§1) Cannabis flavonoids and their analogs were subjected to kinase inhibition assay. The compounds were first screened at a single concentration of 10 μM in the primary assay. […]. To determine the kd or IC50 values, competition binding assays were established, authenticated and executed as described previously. Fabian et al., “A Small Molecule-Kinase Interaction Map For Clinical Kinase Inhibitors.”, Nat Biotechnol, 23(3):329-36, Epub (2005). See also, Karaman et al., “A Quantitative Analysis Of Kinase Inhibitor Selectivity”, Nat. Biotechnol. […] For most assays, kinases were fused to T7 phage strains (Fabian, supra) and for the other assays, kinases were produced in HEK-293 cells after which they were tagged with DNA for quantitative PCR detection. In general, full-length constructs were used for small, single domain kinases, and catalytic domain constructs for large multi-domain kinases. The binding assays utilized streptavidin-coated magnetic beads treated with biotinylated small molecule ligands for 30 minutes at room temperature which generated affinity resins for the kinase assays. The liganded beads were blocked with excess biotin and washed with blocking buffer (SeaBlock (Pierce), 1% BSA, 0.05% Tween 20, 1 mM DTT) to remove unbound ligand and to reduce non-specific phage binding. […] Test compounds were prepared as 40× stocks in 100% DMSO and diluted directly into the assay (Final DMSO concentration=2.5%). All reactions were performed in polypropylene 384-well plates in a final volume of 0.04 ml. […] The beads were then re-suspended in elution buffer (1×PBS, 0.05% Tween 20, 0.5 μM non-biotinylated affinity ligand) and incubated at room temperature with shaking for 30 minutes. The kinase concentration in the eluates was measured by quantitative PCR. An illustration of the kinase interaction process is presented below. Kd/IC50 values were determined using a standard dose response curve using the hill equation. Curves were fitted using a non-linear least square fit with the Levenberg-Marquardt algorithm.
(§2) The compound(s) were screened at 10 μM and results for primary screen binding interactions are reported as ‘% Ctrl’, where lower numbers indicate stronger hits in the matrix.

[2] = biological target: T2, PIM-3 (Homo sapiens, UniProt Q86V86); assay: Kinase competition binding assay, PIM-3; conditions: Table 1 kinase panel
T2 construct: full-length constructs were used for small, single domain kinases; T7 phage fusion (most assays) or DNA tag for qPCR (HEK-293-made kinases); made in house
Protocol: as §1, §2

[3] = system: NCI-H69 (Small lung); assay: WST-1 anticancer cell proliferation assay, NCI-H69; format: cell-based; conditions: 72 hours
Protocol: Bioactivity of the above-described compounds has been verified by an anticancer cell proliferation assay using the WST-1 (4-[3-(4-iodophenyl)-2-(4-nitrophenyl)-2H-5-tetrazolio]-1, 3-benzene disulfonate) colorimetric assay by Roche Life Sciences®. Anticancer activity was tested against several standard cancer cell lines including brain, breast, Kaposi sarcoma, leukemia, lung, melanoma, tenosynovial giant cell tumor, ovarian, pancreatic, colon and prostate cancer. Cells were trypsinized and plated into 96 well plates in 50 μl of media and incubated overnight. The next day approximately 18 hours after plating, 50 μl of media containing the required flavonoid-based pharmaceutical composition was added per well. Cells were plated at a density so that 72 hours post drug addition, the cells will be in log phase (500)-2000 cells/well). The compounds and extracts were solubilized in Dimethyl sulfoxide (DMSO). The cells are allowed to proliferate for 72 hours 37° C. in humidified atmosphere of 5% CO2. The experiment is terminated using WST-1 (Roche®) 10 μl per well and absorbance is read at 450 nm %690 nm. The effect of drugs on growth is assessed as percent of cell viability. The IC50 values were determined from the extract dose versus control growth curves using Graphpad Prism® software. All experiments were carried out in duplicate and the mean results determined.

Row | SMILES | IC50 [1] | IC50 [2] | IC50 [3]
1 | COc1cc(-c2cc(=O)c3c(O)c(C/C=C(\C)CCC=C(C)C)c(O)cc3o2)ccc1O [FBL-03A] | > 20000 nM | > 20000 nM | 16 µM
2 | COc1cc(-c2cc(=O)c3c(O)cc(O)c(CC=C(C)C)c3o2)ccc1O [FBL-03G] | > 20000 nM | 35 nM | 9.5 µM
3 | COc1ccc(-c2cc(=O)c3c(O)c(C/C=C(\C)CCC=C(C)C)c(O)cc3o2)cc1OC [FBL-03D] | > 30000 nM | > 30000 nM | 
4 | COc1cc(-c2cc(=O)c3c(O)c(CC=C(C)C)c(O)cc3o2)ccc1O [FBL-03B] | > 1000 nM | 173 nM | 11 µM
5 | COc1cc(-c2cc(=O)c3c(O)cc(O)c(C/C=C(\C)CCC=C(C)C)c3o2)ccc1O [FBL-03C] | 780 nM | > 1000 nM | 18 µM
